Results as given in PMC13252604, “First Generation Proteolysis Targeting Chimeras (PROTACs) for the Treatment of Progeria” (Advanced Science, 2026).

Tested on: phosphorylated histone 2AX (pH2AX)
Test: pH2AX immunoblot in mouse progeroid cells
Format: cell-based
Conditions: Lmna^G609G/G609G fibroblasts, 5 µM, relative to GAPDH
Procedure: Confocal fluorescence microscopy images are representative of 2 independent experiments. […] Representative cropped immunoblots are shown. […] MW, molecular weight (in kDa) markers. (C) PROTAC 2 decreases senescence‐associated β‐galactosidase (SA‐βgal) activity, interleukin (IL) 1α and p16 senescent markers. Lmna^G609G/G609G (G609G) or Lmna^+/+ (WT) fibroblasts were incubated with vehicle or compound 2 (5 µM). […] Data were analysed using one‐way ANOVA followed by Dunnett's post–hoc test. ^*, p < 0.05; ^**, p < 0.01, ^***, p < 0.001, ^****, p < 0.0001 vs G609G cells. […]
compound exposure. […] Samples were analysed by electrophoresis in polyacrylamide gels (All Kd SDS-PAGE, BioRad) and the proteins transferred to nitrocellulose membranes (GE Healthcare, Amersham). […]
GAPDH (Cell Signaling, 2118S, 1:5000) and anti-actin (Santa Cruz Biotechnology, sc-376248, 1:500) as antibodies for loading control. […] The bands were quantified by densitometry using the […]
Quantification of different proteins intensity was performed using ImageJ (NIH) except for nuclear rim progerin intensity with Cell Profiler (Broad Institute). […]
SA β-galactosidase activity was determined by the FDG method. […]

In the case of `CC1(C)Oc2cc3oc(=O)ccc3cc2C[C@@H]1OC(=O)CCCCCNc1cccc2c1C(=O)N(C1CCC(=O)NC1=O)C2=O` (stereo partly shown) [compound 2], the “levels of phosphorylated histone 2AX (pH2AX)” value is reported as “reduces the levels of phosphorylated histone 2AX”.
